Source: patent EP1143992B1, “THERAPEUTIC COMPOSITIONS CONTAINING GLUTATHIONE ANALOGS” (TELIK, INC., priority 1999, dated 2000)
Where two headings read alike, the source gives them in different places.

How the values were obtained:
[1] = Protocol: The lyophilization cycle involved rapid freezing of the sample (2.5 ml fill of 10 ml vial) to a sample temperature of -50°C, followed by lyophilization at a tray temperature of -35°C for 42 hours to remove primary water, and for 2 hours at 20°C to remove secondary water.
The MLVs may be passed (5-10x) through stacked polycarbonate filters (pore size of 80 nm) using an EXTRUDER (Lipex Biomembranes, Vancouver, Canada).

[2] = tested on: fluorouracil-induced neutropenia; details: rats; fluorouracil 125mg/kg intraperitoneally; liposomal formulation of Example 4, 35mg/kg, 8 daily intravenous injections; Figure 1
Protocol: Male CD rats (250-300g) were injected intraperitoneally with either the antineoplastic drug, fluorouracil (125mg/kg) or an equivalent volume of its vehicle (saline). […] Rats originally injected with saline rather than fluorouracil received saline intravenously (n = 7). Blood samples were taken for measurement of neutrophil levels prior to the fluorouracil and every 1 to 2 days thereafter for 14 days.

[3] = Drug/Lipid 0.25, EPC/EPG (1/1), Sucrose 300 mM
[4] = tested on: circulating neutrophil levels; details: normal rats; liposomal formulation of Example 4, 35mg/kg, i.v., 5 daily injections; Figure 2
Excerpt: Blood samples were taken for measurement of neutrophil levels daily.

[5] = Particle size of lipid microspheres; type: physicochemical; details: lipid microspheres after 1.2µm filter, 300 µg/mL
Protocol: Then 2.21 gm of glycerol and enough distilled water to bring the volume to 100 mL(approximately 90 mL) were added, followed by a rough emulsification by means of a homogenizer. The product is then further emulsified by means of a manton gaulin type homogenizer. […]

Drug (mg/ml) ([1]; ethanol dilution, Drug/Lipid 0.25 wt/wt, EPC, comparative example): 16.2. mg/ml
precipitated form of the drug ([1]; removed by extrusion through 80 nm filters): < 2%
Viscosity ([3]; Lyophilization Time 32 hr): Negligible
Viscosity ([3]; Lyophilization Time 40 hr): Negligible
Viscosity ([3]; Lyophilization Time 44 hr): Negligible
Viscosity ([3]; Lyophilization Time 54 hr): Viscous
Viscosity ([3]; Lyophilization Time 59 hr): Very Viscous
particles of final emulsion [5]: approximately 220 nM
Compound: CCOC(=O)C(N)CCC(=O)NC(CSCc1ccccc1)C(=O)N[C@@H](C(=O)OCC)c1ccccc1.Cl (stereo partly shown) [Compound 9, γ-Glutamyl-S(benzyl)cysteinyl-R-phenyl glycine diethyl ester hydrochloride]
recovery from chemotherapy-induced neutropenia [2]: accelerated recovery
circulating neutrophil levels [4]: increased
